Tests used:
[1] = biological target: T1, Muscarinic acetylcholine receptor M2 (Rattus norvegicus, UniProt P10980); test: Binding affinity towards muscarinic receptor of gastric fundus containing Muscarinic acetylcholine receptor M2; format: tissue-based, Stomach
T1 sequence (P10980 whole entry): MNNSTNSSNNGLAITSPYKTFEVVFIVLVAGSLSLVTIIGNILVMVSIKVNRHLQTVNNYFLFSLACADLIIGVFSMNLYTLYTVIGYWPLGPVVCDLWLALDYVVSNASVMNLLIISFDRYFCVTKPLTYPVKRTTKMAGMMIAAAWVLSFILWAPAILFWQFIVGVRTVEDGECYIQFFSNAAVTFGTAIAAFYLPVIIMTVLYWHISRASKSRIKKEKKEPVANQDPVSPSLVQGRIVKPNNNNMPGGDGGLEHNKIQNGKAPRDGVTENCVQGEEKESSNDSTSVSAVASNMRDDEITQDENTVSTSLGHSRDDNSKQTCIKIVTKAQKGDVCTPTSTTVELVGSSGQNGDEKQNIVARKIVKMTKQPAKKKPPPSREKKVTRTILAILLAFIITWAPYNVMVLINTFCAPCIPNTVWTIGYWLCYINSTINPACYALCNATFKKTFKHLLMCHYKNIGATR

[2] = biological target: T2, Muscarinic acetylcholine receptor M1 (Rattus norvegicus, UniProt P08482); test: biochemical
T2 sequence (P08482 whole entry): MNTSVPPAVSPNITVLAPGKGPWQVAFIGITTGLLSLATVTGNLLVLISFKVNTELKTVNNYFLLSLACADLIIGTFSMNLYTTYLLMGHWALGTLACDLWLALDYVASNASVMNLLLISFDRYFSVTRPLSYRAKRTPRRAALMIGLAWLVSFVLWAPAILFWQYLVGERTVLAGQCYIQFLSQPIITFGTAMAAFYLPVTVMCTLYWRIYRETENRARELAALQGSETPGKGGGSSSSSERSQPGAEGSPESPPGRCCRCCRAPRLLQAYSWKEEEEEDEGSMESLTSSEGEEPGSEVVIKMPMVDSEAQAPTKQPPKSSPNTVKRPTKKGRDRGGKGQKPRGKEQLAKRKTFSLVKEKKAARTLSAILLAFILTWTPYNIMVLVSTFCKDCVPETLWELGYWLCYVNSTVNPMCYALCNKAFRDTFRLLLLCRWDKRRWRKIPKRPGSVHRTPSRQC
Description: Binding affinity towards Muscarinic acetylcholine receptor M1 of cerebral cortex

[3] = biological target: T2, Muscarinic acetylcholine receptor M1; test: Binding affinity towards muscarinic receptor of cerebral cortex containing Muscarinic acetylcholine receptor M1; format: tissue-based
[4] = Partition coefficient (log P) at pH 7.4; format: physicochemical; details: octanol/water

Row | SMILES | IC50 [1] [nM] | IC50 [2] [nM] | IC50 [3] [nM] | logD [4]
1 | CN1CCC(CC(=O)N2c3ccccc3C(=O)Nc3cccnc32)CC1 | 700 | 70 |  | 
2 | CN1CCN(NC(=O)N2c3ccccc3C(=O)Nc3cccnc32)CC1 | 900 | 60 |  | 
3 | CN1CCC(OC(=O)N2c3ccccc3C(=O)Nc3cccnc32)CC1 | 900 | 100 |  | 
4 | CN(C)CC(=O)N1c2ccccc2C(=O)Nc2cccnc21 | 700 | 1500 |  | 
5 | CN1CCC(NC(=O)N2c3ccccc3C(=O)Nc3cccnc32)CC1 | 1200 | 200 |  | 
6 | CN1CCN(CC(=O)N2c3ccccc3NC(=O)c3cccnc32)CC1 | 3000 | 300 |  | -0.42
7 | CN1CCN(CCC(=O)N2c3ccccc3C(=O)Nc3cccnc32)CC1 | 12000 |  | 10000 | 
8 | CN1CCN(CC(=O)N2c3ccccc3C(=O)Nc3cccnc32)CC1 [PIRENZEPINE] |  |  |  | -0.64

More lines, in order of falling IC50 [1], values ahead:

Row | IC50 [1] [nM] | IC50 [2] [nM] | IC50 [3] [nM] | logD [4] | SMILES
9 | 600 | 150 |  |  | CN1CCN(C(=O)N2c3ccccc3C(=O)Nc3cccnc32)CC1
10 | 500 | 600 |  |  | CN(C)CCCCC(=O)N1c2ccccc2C(=O)Nc2cccnc21
11 | 350 | 50 |  | -0.15 | CN1CCN(CC(=O)N2c3ccccc3NC(=O)c3cscc32)CC1
12 | 200 |  | 200 |  | CN(C)CCC(=O)N1c2ccccc2C(=O)Nc2cccnc21
13 | 150 |  | 100 |  | CN1CCCC(CC(=O)N2c3ccccc3C(=O)Nc3cccnc32)CC1 (stereo not drawn)
14 | 120 |  | 100 |  | CN1CCCC(CC(=O)N2c3ccccc3C(=O)Nc3cccnc32)C1 (stereo not drawn)
15 | 100 |  | 50 |  | CN(C)CCCC(=O)N1c2ccccc2C(=O)Nc2cccnc21
16 | 100 | 23 |  | 0.11 | CN1CCN(CC(=O)N2c3ccccc3NC(=O)c3ccccc32)CC1
17 | 50 |  | 20 |  | CN1CCC(CC(=O)N2c3ccccc3C(=O)Nc3cccnc32)C1 (stereo not drawn)
18 | 8 |  | 10 |  | CN1CCCCC1CC(=O)N1c2ccccc2C(=O)Nc2cccnc21 (stereo not drawn)

— ChEMBL document CHEMBL1124130 (J Med Chem, 1988)
